According to patent US11400104B2, “Skeletal removal of bisphosphonates” (The Regents of the University of California, priority 2016, dated 2022):
Entries after “also recorded” stand apart in the source; their conditions may differ. Blank lines part the entries; values can stand above or below the compound they belong to.

Tests used:
[1] = displacement of a pre-adsorbed FL-BP from CaP-coated culture wells by a different FL-BP; type: binding; settings: FIG. 1 Panel A
Method: FIG. 1, Panels A-C, illustrates displacement of an adsorbed fluorescently labeled BP (FL-BP) from a hydroxyapatite surface mimicking bone by a different fluorescently labeled BP. Synthetic bone/dentine (calcium phosphate, CaP)-coated culture wells were pre-treated with either ROX-RIS or 5-FAM-RIS (50 μM) After challenged by serially diluted doses of 5-FAM-RIS or ROX-RIS (from 0 to 50 μM), respectively, Carboxyl-X-Rhodamine (ROX) and carboxyfluorescein (FAM) fluorescence intensities of the CaP-coated wells were measured. Panel A: ROX-RIS in CaP (first bars of each set) remained near the pre-adsorbed 50 μM level until 5 μM or greater concentrations of 5-FAM-RIS challenged. In contrast, 5-FAM-RIS (second bars of each set) was rapidly displaced by concentrations of ROX-RIS as low as 1 μM. Panel B: Pre-adsorbed FAM-RIS was replaced by ROX-RIS between 10 μM to 50 μM. Panel C: The quantitative measurement of FAM and ROX fluorescent signals was conducted by standardized fluorescent biophotonics and a proprietary program (LAS3000, FUJIFILM, Tokyo, Japan).

[2] = system: ZOL-induced mouse BRONJ model; assay: ZOL-induced mouse BRONJ/ONJ model (ZOL IV injection followed by maxillary first molar extraction); type: in vivo; settings: for development of ONJ-like lesions at the tooth extraction sites: ZOL 500 μg/kg IV, intra-oral injection one day prior to extraction, 14 days after extraction, FIG. 21; for histology of maxilla at the tooth extraction site: ONJ-like lesion: 2 weeks after extraction, one time oral injection in ZOL-mice, FIG. 20; for development of ONJ-like lesions: FIG. 19C; for ZOL-injected mice with open oral wound: 500 μg/Kg ZOL via tail vein
Method: AF647-ZOL was applied by intra-oral injection or IV injection 1 day prior to tooth extraction. FIG. 16B are images of mouse maxilla and the oral mucosa inflammation and swelling (white dotted lines, left and right panels) with various degrees of jawbone exposure (arrow) at the tooth extraction site of ZOL-treated mice (BRONJ control: n−4). […]
Panel A is a diagram of the experimental time line. Mice treated by IV injection of ZOL (500 μg/kg) received an intra-oral injection of AF647-ZOL, MHDP or ETI (etidronate) one day prior to maxillary 1″ molar extraction. The development of ONJ was evaluated 14 days after tooth extraction.
The C57BL/6J (B6) mice model of ONJ is used. The consistent tissue source in this study is mouse maxillary bone with or without tooth extraction, as well as femurs, mandibles and L4/L5 lumber bones. Tooth extraction animal models for studying wound healing in mice have been well established in our and other laboratories. Systemic bisphosphonate treatment is accomplished by IV injection and the proposed local application of FL-BP is accomplished by intraoral injection to gingival/palatal tissue of mouse maxilla. Mice are subjected to maxillary molar extraction. After anesthesia and vital signs checked, the animal is placed on a bed supporting the isoflurane tubing while keeping the mouth opening. Ophthalmic ointment (bland, e.g., Lacrilube) is applied. The maxillary molar area is wiped with 0.12% Chlorhexidine gluconate solution (Peridex, oral rinse). An autoclaved dental explorer is used as an exodontia elevator after careful reflection of the cervical mucosa to minimize post-extraction discomfort. An autoclaved cotton swab is placed on the extraction socket until the initial blood coagulation is established. Maxillary 1st molar is then extracted unilaterally from so that the remaining untreated side can be utilized for chewing. In our previous experiments, the entire procedure takes about 5-15 minutes. […]
In a preliminary study female B6 mice were injected 500 μg/Kg ZOL (equivalent to 200 μl of 350 μM ZOL) via tail vein and one week later, maxillary left first molar was extracted. […]
Therefore, as schematically shown in FIG. 19B mouse maxillae were treated with ZOL and then either 2 μg of MHDP was orally injected to the site of the molar to be extracted or 100 μg of MHDP was IV injected and the sites of molar extraction of treated mouse maxilla were compared to controls.

Rap1A prenylation = assay: Western blot of Rap1A prenylation in J774 macrophages; type: cell-based, mouse; settings: 10 μM and 100 μM dose
[3] = system: mouse femur trabecular bone; assay: micro CT evaluation of mouse femur trabecular structure (anti-resorptive function in vivo); settings: for anti-resorptive effect: vs saline (0.9% NaCl) vehicle
Method: FIG. 19A to FIG. 19C present evidence that certain alkylidene bisphosphonates can be used to displace active BPs in vivo in the mouse model. […] FIG. 19B outlines the protocol for the experiments using MHDP to treat C57B16 mice. An ONJ-like lesion was generated by ZOL IV injection into the mouse, followed by extraction of the maxillary first molar. One day prior to the tooth extraction, a group of mice received intra-oral injection of 2 μg MHDP and another group received IV injection of 100 μg MHDP. FIG. 19C presents images of the mouse maxilla.
This study determines the anti-resorptive function of FL-BP in vivo, as compared to ZOL. Female B6 mice were injected with 50 μM ZOL (n=6), 50 μM FL-BP (n=6) or 0.9% NaCl vehicle solution (control: n=6) via tail vein. Three weeks later, mice were euthanized and femur and L4/L5 were harvested. After fixed in 10% buffered formalin, bone samples were subjected to micro CT analysis. The anti-resorptive function were quantitatively established by the trabecular bone three-dimensional morphometry (e.g., BV/TV, Tb.N, Tb.Th, TbSp). FL-BPs with minimal or no pharmacological BP function are used.
Mice were IV injected with 0.9% NaCl (vehicle solution), ZOL (184 μM×100 μL=5.0 μg/animal) or AF647-ZOL (184 μM×100 μL=22.0 μg/animal) and femurs were harvested 2 weeks after injection. The micro CT data were compared.

[4] = hydroxyapatite (HAP) binding affinity, relative retention times normalized to RIS; settings: FIG. 7
Method: FIG. 7 is a bar graph showing hydroxyapatite (HAP) binding affinity of Zoledronate (ZOL), ROX-RIS, 5-FAM-ZOL, and AF647-ZOL. Relative retention times were normalized to RIS.
Hydroxyapatite assays indicate that the FL-BPs generally retain substantial affinity for bone mineral that reflect the affinity of the BP component and to a lesser extent, the affinity of the conjugated fluorophore. Hydroxyapatite (Macro-Prep® Ceramic hydroxyapatite Type II […]) was obtained from Bio-Rad Laboratories, Inc. Hercules, Calif. Accurately weighed hydroxyapatite powder (1.4-1.6 mg) was suspended in a 4 mL clear vial containing the appropriate volume of assay buffer (0.05% (wt/vol) Tween20, 10 μM EDTA and 100 mM HEPES pH=7.4) for 3 hours. Hydroxyapatite was then incubated with increasing amounts of FAM-BP and ROX-BP (0, 25, 50, 100, 200, and 300 μM). Samples were gently shaken for 3 hours at 37° C. in appropriate volume of assay buffer (0.05% (wt/vol) Tween20, 10 μM EDTA and 100 mM HEPES pH=7.4). Subsequent to the equilibrium period, the vials were centrifuged at 10,000 rpm for 5 minutes to separate the solids and the supernatant. 0.3 mL of the supernatant was collected and the equilibrium solution concentration is measured by using Shimadzu UV-VIS spectrometer. For the calibration series, FL-BP probe standards were prepared by serial dilution from the stock solution with the same isotherm buffer to give the range from 0 to 400 μM. Calibration curves were constructed using standard solutions of the target FL-BPs. Fluorescent emission can also be used to calculate the binding parameters. Nonspecific binding was measured with a similar procedure in the absence of hydroxyapatite as control. Binding parameters (Kd and Bmax, represent the equilibrium dissociate constant and maximum number of binding sites, respectively) were calculated using the PRISM program (Graphpad, USA). The binding parameters of each compound was measured in 5 independent experiments. […]

mouse maxilla = assay: preliminary study: fluorescent imaging of mouse maxilla after 5-FAM-ZOL IV or ROX-RIS intraoral injection; type: in vivo; settings: single intraoral 25 μl of 50 μM; 2 days after
Method: In a preliminary study female C57B16/J (B6) mice (8 weeks old) received either a single IV injection via tail vein of 200 μl of 350 μM 5-FAM-ZOL (5-FAM-ZOL, #BV111001, BioVinc LLC, Culver City, Calif.) or a single intraoral injection of 25 μl of 50 μM ROX-RIS (5(6)-ROX-RIS, #BV150101, BioVinc LLC, CA) to gingival/palatal tissue at maxillary left first molar (white arrow in FIG. 11). […], mice were euthanized 3 weeks after the IV injection of 5-FAM-ZOL or 2 days after the intraoral injection of ROX-RIS. Skulls (containing maxilla) were harvested and standardized fluorescent biophotonics image was obtained using an excitation wavelength of 460 nm and the 515 nm filter (LAS3000, FUJIFILM Corp).

[5] = IV 184 μM×100 μL, femurs 2 weeks after injection

- concentration of challenging 5-FAM-RIS up to which pre-adsorbed ROX-RIS remained near the pre-adsorbed level ([1]; CaP wells pre-treated with 50 μM ROX-RIS): ≥ 5 µM
SMILES: O=C(NCC(O)C[n+]1cccc(CC(O)(P(=O)(O)O)P(=O)(O)O)c1)c1ccc(-c2c3ccc(=O)cc-3oc3cc(O)ccc23)c(C(=O)O)c1 (centres unmarked) [5-FAM-RIS]

SMILES: CC(O)(P(=O)(O)O)P(=O)(O)O [ETI, ethylene hydroxyl bisphosphonate, reference compound]
- development of ONJ-like lesions at the tooth extraction sites [2]: appeared to be prevented
- inhibition of Rap1A prenylation (accumulated unprenylated Rap1A) (Rap1A prenylation): not

SMILES: O=P(O)(O)C(O)P(=O)(O)O [MHDP, methylene hydroxyl bisphosphonate]
- histology of maxilla at the tooth extraction site: ONJ-like lesion [2]: did not develop an ONJ-like lesion
- development of ONJ-like lesions ([2]; IV injection of 100 μg one day prior to extraction): prevented the development of ONJ-like lesions
- development of ONJ-like lesions at the tooth extraction sites [2]: appeared to be prevented
- development of ONJ-like lesions ([2]; intra-oral injection of 2 μg one day prior to extraction): prevented the development of ONJ-like lesions
- inhibition of Rap1A prenylation (accumulated unprenylated Rap1A) (Rap1A prenylation): not
- anti-resorptive effect ([3]; FIG. 19A): lack of anti-resorptive activity; also recorded: lack of anti-resorptive effect

- concentration of challenging ROX-RIS that displaced pre-adsorbed 5-FAM-RIS ([1]; CaP wells pre-treated with 50 μM 5-FAM-RIS): ≥ 1 µM
- influence of the fluorophore on hydroxyapatite affinity [4]: enhancement
- fluorescent signal in palatal bone around the injection site (mouse maxilla): localized red fluorescent signal
SMILES: O=C(NCC(O)C[n+]1cccc(CC(O)(P(=O)(O)O)P(=O)(O)O)c1)c1ccc(C2=c3cc4c5c(c3Oc3c2cc2c6c3CCCN6CCC2)CCC[N+]=5CCC4)c(C(=O)O)c1 (centres unmarked) [ROX-RIS]

SMILES: O=P(O)(O)C(O)(Cn1ccnc1)P(=O)(O)O [ZOL, zoledronate]
- ZOL-injected mice with open oral wound ([2]; 2 weeks of tooth extraction): 100%
- ZOL-injected mice with open oral wound ([2]; 4 weeks of tooth extraction): 50%
- histology of maxilla at the tooth extraction site: ONJ-like lesion [2]: development of an ONJ-like lesion
- tooth extraction wound healing in ZOL-injected mice ([2]; ZOL IV, then maxillary first molar extraction): delayed wound healing with gingival swelling and jawbone exposure
- inhibition of Rap1A prenylation (accumulated unprenylated Rap1A) (Rap1A prenylation): inhibited Rap1A prenylation
- bone volume over tissue volume (BV/TV) ([3]; FIG. 19A, trabecular bone): increased
- connectivity density (ConnD) ([3]; FIG. 19A, trabecular bone): decreased
- anti-resorptive effect ([3]; FIG. 19A): significant anti-resorptive effect
- connectivity density [3, 5]: nearly doubled
- volume of femur trabecular bone (BV/TV) [3, 5]: nearly doubled
- bone structural parameters ([3]; IV 184 μM×100 μL, femurs 2 weeks after injection, FIG. 14): significantly increased
